Each block holds one molecule with its values, some of them ahead of it.
Assays:
Trypsin = Trypsin (Homo sapiens, UniProt P07477+P07478+P35030); test: Inhibition of human trypsin by Dixon-plot method; assay type: protein assay
Coagulation factor X = Coagulation factor X (Homo sapiens, UniProt P00742); test: Inhibition of human factor 10a by Dixon-plot method
[1] = Total clearance in iv dosed rat; assay type: ADME, organism-based; details: in vivo
[2] = Oral bioavailability in rat; assay type: ADME, organism-based; details: in vivo
Rattus norvegicus = test: Stability in iv dosed rat assessed as prodrug conversion; assay type: ADME, organism-based; details: in vivo
Plasma = test: Anticoagulant activity in human plasma assessed as concentration required to double prothrombin time; assay type: functional
[3] = Systemic clearance in rat; assay type: ADME, organism-based; details: in vivo
Mus musculus = test: Antithrombotic activity against thromboplastin-induced lethal thromboembolism in po dosed thrombosis mouse model assessed as survival; assay type: functional
[4] = Oral bioavailability in mouse at 30 mg/kg; assay type: ADME, organism-based; details: in vivo
Prothrombin = Prothrombin (Homo sapiens, UniProt P00734); test: Inhibition of human thrombin by Dixon-plot method
[5] = Oral bioavailability in mouse; assay type: ADME, organism-based; details: in vivo
[6] = Oral bioavailability in dog; assay type: ADME, organism-based, Canis lupus familiaris; details: in vivo
[7] = Oral bioavailability in cynomolgus monkey; assay type: ADME, organism-based, Macaca fascicularis; details: in vivo
[8] = Oral bioavailability in rabbit; assay type: ADME, organism-based, Oryctolagus cuniculus; details: in vivo

Sequence of Coagulation factor X (P00742 41-179 limits assumed): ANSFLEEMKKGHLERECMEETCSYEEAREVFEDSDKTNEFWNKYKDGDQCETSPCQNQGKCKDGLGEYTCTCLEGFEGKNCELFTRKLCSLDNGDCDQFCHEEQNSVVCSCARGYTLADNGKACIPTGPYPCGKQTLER
Sequence of Coagulation factor X (P00742 235-488 limits assumed): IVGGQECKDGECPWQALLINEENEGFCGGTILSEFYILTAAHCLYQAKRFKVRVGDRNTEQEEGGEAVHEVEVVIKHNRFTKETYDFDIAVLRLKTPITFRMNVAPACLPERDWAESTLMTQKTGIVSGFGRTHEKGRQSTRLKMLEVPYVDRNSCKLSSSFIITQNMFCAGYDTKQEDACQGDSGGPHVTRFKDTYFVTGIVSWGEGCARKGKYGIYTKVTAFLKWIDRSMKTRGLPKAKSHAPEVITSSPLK

Compound: CC(C)c1ccc(CCNS(=O)(=O)c2cc(/C(N)=N/O)ccc2O)cc1
clearance [1]: 27 mL/min
bioavailability [2]: 6.6%
Ki (Coagulation factor X): 7300 nM
Activity (Rattus norvegicus): 1%

Compound: CCOC(=O)CN(CCc1ccc(C(C)C)cc1)S(=O)(=O)c1cc(/C(N)=N/O)ccc1O
bioavailability [2]: < 1%
Ki (Coagulation factor X): 3700 nM

Compound: CS(=O)(=O)c1ccccc1-c1ccc(CCNS(=O)(=O)c2cc(C(=N)N)ccc2O)c(OCC(=O)O)c1
clearance [1]: 7.5 mL/min

Compound: CC(C)c1ccc(CCNS(=O)(=O)c2cc(C(=N)N)ccc2Cl)cc1
Ki (Trypsin): 4000 nM
Ki (Coagulation factor X): 3000 nM

Compound: COc1ccc(C(=N)N)cc1S(=O)(=O)NCCc1ccc(C(C)C)cc1
Ki (Coagulation factor X): 14000 nM

Compound: CCOC(=O)COc1cc(C(C)C)ccc1CCNS(=O)(=O)c1cc(C(=N)NO)ccc1O
ED50 (Mus musculus): 15.8 mg/kg
bioavailability [2]: 13%
Ki (Coagulation factor X): 3500 nM

Compound: CC(C)c1ccc(CCNS(=O)(=O)c2cc(/C(N)=N/O)ccc2O)c(OCC(=O)O)c1
clearance [1]: 7.5 mL/min
bioavailability [2]: 9.2%
Ki (Coagulation factor X): > 10000 nM
Activity (Rattus norvegicus): 57%

Compound: CS(=O)(=O)c1ccccc1-c1ccc(CCNS(=O)(=O)c2cc(C(=N)N)ccc2O)c(OCC(=O)O)c1.Cl
Ki (Prothrombin): 57.8 µM
Ki (Trypsin): 1170 nM
Activity (Plasma): 1.01 µM

Compound: CC(=N)N1CCC(c2ccc(NC(=O)CN(Cc3cccc(OCC(=O)O)c3)c3cccc(C(=N)N)c3)cc2)CC1
Ki (Prothrombin): 26 µM
Ki (Trypsin): 6170 nM
Activity (Plasma): 0.84 µM
clearance [1]: 23 mL/min
bioavailability [2]: 0.9%

Compound: CCCCOC(=O)COc1cc(-c2ccccc2S(C)(=O)=O)ccc1CCNS(=O)(=O)c1cc(C(=N)NO)ccc1O.Cl
bioavailability [5]: 15%
bioavailability [6]: 4.9%
bioavailability [7]: 11%
bioavailability [8]: 23%

Compound: CC(C)c1ccc(CCN(CC(=O)O)S(=O)(=O)c2cc(/C(N)=N/O)ccc2O)cc1
clearance [1]: 13 mL/min
Ki (Coagulation factor X): 7000 nM
Activity (Rattus norvegicus): 16%

Now from value to molecule, other results behind:

Ki (Trypsin): 770 nM
Ki (Coagulation factor X): 59 nM
Compound: CC(C)c1ccc(CCN(C)S(=O)(=O)c2cc(C(=N)N)ccc2O)cc1

clearance [3]: 8.1 mL/min
clearance [1]: 8.1 mL/min
Ki (Coagulation factor X): 14 nM
Compound: CC(C)c1ccc(CCN(CC(=O)O)S(=O)(=O)c2cc(C(=N)N)ccc2O)cc1
Activity (Plasma): 1.4 µM

clearance [1]: 25 mL/min
Ki (Coagulation factor X): 5.7 nM
Compound: CS(=O)(=O)c1ccccc1-c1ccc(CCNS(=O)(=O)c2cc(C(=N)N)ccc2O)c(NCC(=O)O)c1

Ki (Coagulation factor X): 27 nM
Compound: CC(C)(C)c1ccc(CCNS(=O)(=O)c2cc(C(=N)N)ccc2O)cc1

clearance [1]: 3.2 mL/min
Ki (Coagulation factor X): 62 nM
Compound: CC(C)c1ccc(CCNS(=O)(=O)c2cc(C(=N)N)ccc2O)c(NCC(=O)O)c1

clearance [1]: 1.7 mL/min
Ki (Coagulation factor X): 51 nM
bioavailability [4]: 38%
Compound: CC(C)c1ccc(CCNS(=O)(=O)c2cc(C(=N)N)ccc2O)c(OCC(=O)O)c1
Activity (Plasma): 7.2 µM

clearance [1]: 20 mL/min
Ki (Coagulation factor X): 9.7 nM
Compound: CC(C)c1ccc(CCNS(=O)(=O)c2cc(C(=N)N)ccc2O)c(NC(=O)C(=O)O)c1

Ki (Prothrombin): > 10 µM
Ki (Trypsin): 800 nM
clearance [1]: 27 mL/min
bioavailability [2]: 3.7%
Ki (Coagulation factor X): 29 nM
Compound: CC(C)c1ccc(CCNS(=O)(=O)c2cc(C(=N)N)ccc2O)cc1
Activity (Plasma): 2.6 µM

Ki (Prothrombin): > 10 µM
IC50 (Trypsin): 9.7 µM
Ki (Coagulation factor X): 2100 nM
Compound: CC(C)c1ccc(CCNS(=O)(=O)c2cccc(C(=N)N)c2)cc1

Ki (Prothrombin): > 10 µM
IC50 (Trypsin): 1.7 µM
Ki (Coagulation factor X): 100 nM
Compound: CC(C)Oc1ccc(CCNS(=O)(=O)c2cc(C(=N)N)ccc2O)cc1
